Values of other authors, collected in paper PMC9516332 (Frontiers in Oncology, 2022).
Where two headings read alike, the source gives them in different places.

Key:
Conditions in all cases: cited from earlier work
[1] = biological target: T1, panel of 255 wild-type kinases (Homo sapiens, UniProt O14757)
T1 sequence (O14757 1-476): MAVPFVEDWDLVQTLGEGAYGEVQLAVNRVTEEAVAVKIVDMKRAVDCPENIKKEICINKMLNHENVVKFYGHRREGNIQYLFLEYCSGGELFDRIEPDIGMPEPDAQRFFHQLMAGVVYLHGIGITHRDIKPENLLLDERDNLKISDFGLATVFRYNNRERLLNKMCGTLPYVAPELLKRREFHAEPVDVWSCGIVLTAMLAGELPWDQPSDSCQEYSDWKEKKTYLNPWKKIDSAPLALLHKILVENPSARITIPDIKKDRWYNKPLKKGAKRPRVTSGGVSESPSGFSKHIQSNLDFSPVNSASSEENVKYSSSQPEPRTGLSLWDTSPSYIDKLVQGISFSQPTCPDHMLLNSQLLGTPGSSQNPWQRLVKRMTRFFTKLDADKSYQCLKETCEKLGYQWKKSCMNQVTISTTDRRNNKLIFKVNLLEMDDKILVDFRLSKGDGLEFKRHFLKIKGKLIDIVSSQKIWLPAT

[2] = biological target: T2, panel of 255 wild-type kinases (Homo sapiens, UniProt P30530)
T2 sequence (P30530 26-894): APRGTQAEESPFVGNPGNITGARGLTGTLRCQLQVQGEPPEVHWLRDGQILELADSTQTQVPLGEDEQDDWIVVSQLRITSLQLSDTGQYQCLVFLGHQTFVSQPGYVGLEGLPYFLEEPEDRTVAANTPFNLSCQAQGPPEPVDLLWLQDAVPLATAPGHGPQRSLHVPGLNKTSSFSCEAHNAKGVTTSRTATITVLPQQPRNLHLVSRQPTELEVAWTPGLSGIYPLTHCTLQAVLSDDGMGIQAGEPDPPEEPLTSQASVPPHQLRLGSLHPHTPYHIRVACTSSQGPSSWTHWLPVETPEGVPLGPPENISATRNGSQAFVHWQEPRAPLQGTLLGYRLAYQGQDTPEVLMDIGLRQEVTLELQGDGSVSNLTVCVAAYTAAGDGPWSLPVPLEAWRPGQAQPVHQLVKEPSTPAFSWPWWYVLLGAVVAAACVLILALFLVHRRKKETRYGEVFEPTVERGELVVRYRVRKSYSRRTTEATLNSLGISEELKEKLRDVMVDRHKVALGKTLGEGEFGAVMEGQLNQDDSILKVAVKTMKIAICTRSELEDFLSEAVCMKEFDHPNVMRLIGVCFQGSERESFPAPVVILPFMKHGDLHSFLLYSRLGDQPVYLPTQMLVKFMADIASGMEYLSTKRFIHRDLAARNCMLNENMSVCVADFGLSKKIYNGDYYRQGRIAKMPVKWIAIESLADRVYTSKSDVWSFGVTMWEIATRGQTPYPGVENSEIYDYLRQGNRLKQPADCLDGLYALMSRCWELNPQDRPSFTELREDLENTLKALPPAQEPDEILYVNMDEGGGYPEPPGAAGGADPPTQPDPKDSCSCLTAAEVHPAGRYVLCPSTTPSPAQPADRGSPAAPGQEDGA

[3] = biological target: panel of 255 wild-type kinases (Homo sapiens, UniProt P41240)
[4] = biological target: panel of 255 wild-type kinases (Homo sapiens, UniProt P49137)
[5] = biological target: panel of 255 wild-type kinases (Homo sapiens, UniProt P49760)
[6] = biological target: panel of 255 wild-type kinases (Homo sapiens, UniProt P54646)
[7] = biological target: T3, panel of 255 wild-type kinases (Homo sapiens, UniProt Q13043)
T3 sequence (Q13043 1-487): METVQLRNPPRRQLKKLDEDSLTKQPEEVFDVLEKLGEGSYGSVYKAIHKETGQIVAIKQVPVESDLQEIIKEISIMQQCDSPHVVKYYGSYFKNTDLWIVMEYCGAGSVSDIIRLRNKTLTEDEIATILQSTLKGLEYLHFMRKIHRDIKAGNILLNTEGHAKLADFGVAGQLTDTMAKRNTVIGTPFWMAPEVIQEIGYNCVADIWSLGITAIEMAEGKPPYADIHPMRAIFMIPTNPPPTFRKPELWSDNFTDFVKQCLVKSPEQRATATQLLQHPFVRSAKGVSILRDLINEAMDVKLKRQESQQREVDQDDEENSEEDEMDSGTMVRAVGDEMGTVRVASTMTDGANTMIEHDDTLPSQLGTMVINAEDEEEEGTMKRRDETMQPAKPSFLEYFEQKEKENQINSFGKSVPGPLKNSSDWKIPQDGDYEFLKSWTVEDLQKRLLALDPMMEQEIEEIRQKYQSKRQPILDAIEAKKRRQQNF

[8] = biological target: panel of 255 wild-type kinases (Homo sapiens, UniProt Q13131)
[9] = biological target: panel of 255 wild-type kinases (Homo sapiens, UniProt Q16512)
[10] = tested on: panel of 255 wild-type kinases
[11] = CHK1 kinase assay, 1 µmol/L single concentration, ref DOI: 10.1158/1535-7163.MCT-18-0877
[12] = AXL kinase assay, 1 µmol/L single concentration, ref DOI: 10.1158/1535-7163.MCT-18-0877
[13] = kinase CSK, 1 µmol/L single concentration, ref DOI: 10.1158/1535-7163.MCT-18-0877
[14] = kinase MAPKAPK2, 1 µmol/L single concentration, ref DOI: 10.1158/1535-7163.MCT-18-0877
[15] = kinase CLK2, 1 µmol/L single concentration, ref DOI: 10.1158/1535-7163.MCT-18-0877
[16] = AMPKα2/β1/γ1 kinase assay, 1 µmol/L single concentration, ref DOI: 10.1158/1535-7163.MCT-18-0877
[17] = MST1, 1 µmol/L single concentration, ref DOI: 10.1158/1535-7163.MCT-18-0877
[18] = AMPKα1/β1/γ1 kinase assay, 1 µmol/L single concentration, ref DOI: 10.1158/1535-7163.MCT-18-0877
[19] = kinase PKN1, 1 µmol/L single concentration, ref DOI: 10.1158/1535-7163.MCT-18-0877
[20] = kinase FYN [isoform b], 1 µmol/L single concentration, ref DOI: 10.1158/1535-7163.MCT-18-0877
[21] = kinase LYNb, 1 µmol/L single concentration, ref DOI: 10.1158/1535-7163.MCT-18-0877
[22] = kinase PKCβ2, 1 µmol/L single concentration, ref DOI: 10.1158/1535-7163.MCT-18-0877
[23] = kinase SRM, 1 µmol/L single concentration, ref DOI: 10.1158/1535-7163.MCT-18-0877
[24] = kinase CSK, 1 µmol/L single concentration, ref DOI: 10.1371/journal.pone.0092146
[25] = kinase CLK2, 1 µmol/L single concentration, ref DOI: 10.1371/journal.pone.0092146
[26] = kinase PKN1, 1 µmol/L single concentration, ref DOI: 10.1371/journal.pone.0092146

SMILES | %-inhibition CHK1 [1, 11] [%] | %-inhibition AXL [2, 12] [%] | %-inhibition at 1 µmol/L, CSK [3, 13] [%] | %-inhibition at 1 µmol/L, MAPKAPK2 [4, 14] [%] | %-inhibition at 1 µmol/L, CLK2 [5, 15] [%] | %-inhibition AMPKα2/β1/γ1 [6, 16] [%] | %-inhibition, MST1 [7, 17] [%] | %-inhibition AMPKα1/β1/γ1 [8, 18] [%] | %-inhibition at 1 µmol/L, PKN1 [9, 19] [%] | %-inhibition at 1 µmol/L, FYN [isoform b] [10, 20] [%] | %-inhibition at 1 µmol/L, LYNb [10, 21] [%] | %-inhibition at 1 µmol/L, PKCβ2 [10, 22] [%] | %-inhibition at 1 µmol/L, SRM [10, 23] [%] | also measured
CC#CC(=O)N1CCC[C@H]1c1nc(-c2ccc(C(=O)Nc3ccccn3)cc2)c2c(N)nccn12 [acalabrutinib] | -7 | -0.457 | 7 | -21 | -7 | 3.5 | 4 | -5 | 11 | -1.25 | -2 | -12 | 39 | –
CCc1cc2c(cc1N1CCC(N3CCOCC3)CC1)C(C)(C)c1[nH]c3cc(C#N)ccc3c1C2=O [alectinib] | 0.288 | 59 | 6 | -5.66 | 14 | 6 | 10 | 5 | 13 | 12 | 15 | 0.0492 | 41 | –
COc1cc(N2CCC(N3CCN(C)CC3)CC2)ccc1Nc1ncc(Cl)c(Nc2ccccc2P(C)(C)=O)n1 [brigatinib] | – | – | – | – | – | – | – | – | – | – | – | – | – | %-inhibition CHK1 [1]: 96%; %-inhibition AXL [2]: 97%; %-inhibition at 1 µmol/L, CSK [3]: 9%; %-inhibition at 1 µmol/L, MAPKAPK2 [4]: -14%; %-inhibition at 1 µmol/L, CLK2 [5]: 91%; %-inhibition AMPKα2/β1/γ1 [6]: 90%; %-inhibition, MST1 [7]: 71%; %-inhibition AMPKα1/β1/γ1 [8]: 80%; %-inhibition at 1 µmol/L, PKN1 [9]: 77%; %-inhibition at 1 µmol/L, FYN [isoform b] [10]: 56%; %-inhibition at 1 µmol/L, LYNb [10]: 43%; %-inhibition at 1 µmol/L, PKCβ2 [10]: 31%; %-inhibition at 1 µmol/L, SRM [10]: 92%
Cc1cc(Nc2ncc(Cl)c(Nc3ccccc3S(=O)(=O)C(C)C)n2)c(OC(C)C)cc1C1CCNCC1 [ceritinib] | 1.32 | 56 | 3 | -14 | 99 | 40 | 17 | 21 | 25 | -4 | 11 | 4 | 40 | –
C[C@@H](Oc1cc(-c2cnn(C3CCNCC3)c2)cnc1N)c1c(Cl)ccc(F)c1Cl [crizotinib] | – | – | – | – | – | – | – | – | – | – | – | – | – | %-inhibition CHK1 ([1]; CHK1 kinase assay, 1 µmol/L single concentration, ref DOI: 10.1371/journal.pone.0092146): 10%; %-inhibition at 1 µmol/L, CSK [3, 24]: 9%; %-inhibition at 1 µmol/L, MAPKAPK2 ([4]; kinase MAPKAPK2, 1 µmol/L single concentration, ref DOI: 10.1371/journal.pone.0092146): -17%; %-inhibition at 1 µmol/L, CLK2 [5, 25]: -6%; %-inhibition AMPKα2/β1/γ1 ([6]; AMPKα2/β1/γ1 kinase assay, 1 µmol/L single concentration, ref DOI: 10.1371/journal.pone.0092146): 27%; %-inhibition, MST1 ([7]; MST1, 1 µmol/L single concentration, ref DOI: 10.1371/journal.pone.0092146): 83%; %-inhibition AMPKα1/β1/γ1 ([8]; AMPKα1/β1/γ1 kinase assay, 1 µmol/L single concentration, ref DOI: 10.1371/journal.pone.0092146): 16%; %-inhibition at 1 µmol/L, PKN1 [9, 26]: 23%; %-inhibition at 1 µmol/L, LYNb [10]: 34%; %-inhibition at 1 µmol/L, PKCβ2 [10]: -1.6%; %-inhibition at 1 µmol/L, SRM [10]: 1.51%
CC(C)(C)c1nc(-c2cccc(NS(=O)(=O)c3c(F)cccc3F)c2F)c(-c2ccnc(N)n2)s1 [dabrafenib] | – | – | – | – | – | – | – | – | – | – | – | – | – | %-inhibition AXL ([2]; AXL kinase assay, 1 µmol/L single concentration, ref DOI: 10.1371/journal.pone.0092146): 30%; %-inhibition at 1 µmol/L, CSK [3, 24]: 98%; %-inhibition at 1 µmol/L, CLK2 [5, 25]: 0.875%; %-inhibition at 1 µmol/L, PKN1 [9, 26]: -2.84%; %-inhibition at 1 µmol/L, LYNb ([10]; kinase LYNb, 1 µmol/L single concentration, ref DOI: 10.1371/journal.pone.0092146): 86%; %-inhibition at 1 µmol/L, PKCβ2 ([10]; kinase PKCβ2, 1 µmol/L single concentration, ref DOI: 10.1371/journal.pone.0092146): -3%; %-inhibition at 1 µmol/L, SRM ([10]; kinase SRM, 1 µmol/L single concentration, ref DOI: 10.1371/journal.pone.0092146): 100%
C=CC(=O)N1CCC[C@@H](n2nc(-c3ccc(Oc4ccccc4)cc3)c3c(N)ncnc32)C1 [ibrutinib] | 10 | 9 | – | -13 | – | 10 | 4 | – | 9 | 87 | 100 | 1.78 | 102 | –
CO[C@@H]1[C@H](N(C)C(=O)c2ccccc2)C[C@H]2O[C@]1(C)n1c3ccccc3c3c4c(c5c6ccccc6n2c5c31)C(=O)NC4 [midostaurin] | 68 | 87 | 58 | -12 | – | 90 | – | 86 | – | – | – | – | – | –
